The source of these data is patent publication US6875760B2 (Novo Nordisk A/S, priority 1999, dated 2005).

Structures are written as SMILES.

The target of the test is T1, human glucagon receptor (Homo sapiens, UniProt P47871).
T1 construct: expressed in transfected cells; host or cells: BHK (baby hamster kidney) cells
As to the kind of experiment: Glucagon Binding Assay (III). The settings on record: BHK cell membranes, WGA SPA beads, 125I-glucagon; read-out: Glu Bd Assay (III) IC50. In short, it runs like this:
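Membranes from BHK cells transfected with the human receptor, prepared at 4 °C, were used in a WGA-bead scintillation proximity binding format. Plates were shaken for 4 hours, left to settle 8–48 hours and then counted. Non-specific binding was defined with 500 nM glucagon.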

By IC50 is commonly meant the point on the concentration scale where inhibition reaches its midpoint.

T1 sequence (P47871 26-477): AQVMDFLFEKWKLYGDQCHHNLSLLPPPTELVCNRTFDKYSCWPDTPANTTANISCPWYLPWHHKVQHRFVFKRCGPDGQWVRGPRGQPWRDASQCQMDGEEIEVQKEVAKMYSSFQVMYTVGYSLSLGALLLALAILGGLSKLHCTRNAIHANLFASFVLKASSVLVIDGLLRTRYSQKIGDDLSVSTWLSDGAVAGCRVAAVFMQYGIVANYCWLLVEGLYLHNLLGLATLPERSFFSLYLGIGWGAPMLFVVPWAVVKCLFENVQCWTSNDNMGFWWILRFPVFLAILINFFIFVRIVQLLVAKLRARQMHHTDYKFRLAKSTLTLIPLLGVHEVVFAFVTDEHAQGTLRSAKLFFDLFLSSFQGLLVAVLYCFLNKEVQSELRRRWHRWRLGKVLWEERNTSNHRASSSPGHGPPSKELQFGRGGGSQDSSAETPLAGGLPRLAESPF

Consider `O=C(Nc1nn[nH]n1)c1ccc(CN(CC(c2ccccc2)c2ccccc2)C(=O)Cc2cccc(OC(F)(F)F)c2)cc1` [Example 529, 4-({(2,2-Diphenylethyl)-[2-(3-trifluoromethoxyphenyl)acetyl]amino}methyl)-N-(2H-tetrazol-5-yl)benzamide], for which the half-inhibitory concentration (IC50) was found to be 0.47 µM.

Regarding `CC(Oc1ccc(OC(F)(F)F)cc1)C(=O)N(Cc1ccc(C(=O)Nc2nn[nH]n2)cc1)CC(c1ccccc1)c1ccccc1` (stereo not shown) [Example 530, 4-({(2,2-Diphenylethyl)-[2-(4-trifluoromethoxyphenoxy)propionyl]amino}methyl)-N-(2H-tetrazol-5-yl)benzamide], the 50% inhibitory concentration (IC50) came to 3.98 µM.

For the compound `O=C(Nc1nn[nH]n1)c1ccc(CN(CC(c2ccccc2)c2ccccc2)C(=O)Cc2ccc(OC(F)(F)F)cc2)cc1` [Example 531], the IC50 was 0.627 µM.

Regarding `O=C(Nc1nn[nH]n1)c1ccc(CN(C(=O)CSCc2ccccc2)c2ccc(C3CCCCC3)cc2)cc1` [Example 532, 4-{[(2-Benzylsulfanylacetyl)-(4-cyclohexylphenyl)amino]methyl}-N-(2H-tetrazol-5-yl)benzamide], the IC50 was 0.626 µM.

In the case of `O=C(Nc1nn[nH]n1)c1ccc(CN(C(=O)CCOc2ccccc2)c2ccc(C3CCCCC3)cc2)cc1` [Example 533, 4-{[(4-Cyclohexylphenyl)-(3-phenoxypropionyl)amino]methyl}-N-(2H-tetrazol-5-yl)benzamide], the 50% inhibitory concentration (IC50) was determined as 1.8 µM.

With `O=C(Nc1nn[nH]n1)c1ccc(CN(C(=O)/C=C/c2cccc3ccccc23)c2ccc(C3CCCCC3)cc2)cc1` [Example 534, 4-{[(4-Cyclohexylphenyl)-(3-naphthalen-1-ylacryloyl)amino]methyl}-N-(2H-tetrazol-5-yl)benzamide], the half-maximal inhibitory concentration (IC50) turned out to be 0.282 µM.

On to `O=C(Nc1nn[nH]n1)c1ccc(CN(C(=O)CCCc2ccccc2)c2ccc(C3CCCCC3)cc2)cc1` [Example 535, 4-{[(4-Cyclohexylphenyl)-(4-phenylbutyryl)amino]methyl}-N-(2H-tetrazol-5-yl)benzamide], for which the IC50 amounted to 0.224 µM.

Consider `CC(C)(C)C1CCC(N(Cc2ccc(C(=O)Nc3nn[nH]n3)cc2)C(=O)CSCc2ccccc2)CC1` (stereo not shown) [Example 537, 4-{[(2-Benzylsulfanylacetyl)-(4-tert-butylcyclohexyl)amino]methyl}-N-(2H-tetrazol-5-yl)benzamide], for which the IC50 came to 0.28 µM.

For `CC(C)(C)C1CCC(N(Cc2ccc(C(=O)Nc3nn[nH]n3)cc2)C(=O)C/C=C/c2ccccc2)CC1` (stereo not shown) [Example 538, 4-{[(4-tert-Butylcyclohexyl)-(4-phenylbut-3-enoyl)amino]methyl}-N-(2H-tetrazol-5-yl)benzamide], the concentration for half-maximal inhibition (IC50) came to 0.18 µM.

For the compound `CC(C)(C)C1CCC(N(Cc2ccc(C(=O)Nc3nn[nH]n3)cc2)C(=O)Cc2c(Cl)cccc2Cl)CC1` (stereo not shown) [Example 539, 4-({(4-tert-Butylcyclohexyl)-[2-(2,6-dichlorophenyl)acetyl]amino}methyl)-N-(2H-tetrazol-5-yl)benzamide], the IC50 was 0.386 µM.

With `CC(C)(C)C1CCC(N(Cc2ccc(C(=O)Nc3nn[nH]n3)cc2)C(=O)CCC(=O)c2ccc(Cl)cc2)CC1` (stereo not shown) [Example 540, 4-({(4-tert-Butylcyclohexyl)-[4-(4-chlorophenyl)-4-oxobutyryl]amino}methyl)-N-(2H-tetrazol-5-yl)benzamide], the IC50 was 0.54 µM.

On to `CC(C)(C)C1CCC(N(Cc2ccc(C(=O)Nc3nn[nH]n3)cc2)C(=O)CCC(=O)c2ccccc2)CC1` (stereo not shown) [Example 541, 4-({(4-tert-Butylcyclohexyl)-(4-oxo-4-phenylbutyryl)amino]methyl}-N-(2H-tetrazol-5-yl)benzamide], for which the IC50 stood at 0.805 µM.

On to `CC(Oc1ccc(Cl)cc1)C(=O)N(Cc1ccc(C(=O)Nc2nn[nH]n2)cc1)C1CCC(C(C)(C)C)CC1` (stereo not shown) [Example 542, 4-({(4-tert-Butylcyclohexyl)-[2-(4-chlorophenoxy)propionyl]amino}methyl)-N-(2H-tetrazol-5-yl)benzamide], for which the IC50 is 0.304 µM.
